According to patent US11376228B2 (Genifarm Laboratories Inc, priority 2018, dated 2022):
Read-outs that look alike come from different tables or passages of the source.

Tests used:
Type in all cases: cell-based
[1] = test system: human prostate cancer cells PC3; experiment: MTT assay, proliferation of human prostate cancer cells PC3; details: for IC50: Homo sapiens, 48 h, read-out: IC50 on the proliferation of human prostate cancer cells PC3; for inhibitory effects on human prostate cancer cells PC3 (in words): PC3, summary of Table 4; for effect compared with control gossypol I-A9, PC3: PC3, versus gossypol I-A9
[2] = test system: human lung cancer cells A549; experiment: MTT assay, proliferation of human lung cancer cells A549; details: for inhibitory effects on human lung cancer cells A549 (in words): A549, summary of Table 3; for effect compared with control gossypol I-A9, A549: A549, versus gossypol I-A9; for IC50: Homo sapiens, read-out: IC50 on the proliferation of human lung cancer cells A5499
Procedure: (§1) The original culture medium for human lung cancer cells A549 was removed, and human lung cancer cells A549 were rinsed with 2 mL of phosphate buffer saline (PBS), digested with 0.5 mL of pancreatic enzyme for 3 min. 2 mL of culture medium was added to the cells and the mixture was transferred to a centrifuge tube. The mixture was centrifuged (200 g) for 5 min. The supernatant was removed. 2 mL of culture medium was sprayed five times to the remaining solution. 0.5 mL of cell suspension was transferred to an Eppendorf (EP) tube and the cells were counted. The cells were cultured on a 96-well plate, each well having 2000 cells, 3 wells for each compound. The numbers of the required cells and wells and the amount of culture medium were calculated. The cells were diluted by the culture medium. 100 μL culture medium was added to each well and were evenly dispersed, each well containing 2000 cells. The cells were transferred to the wells using a pipette, and cultured in an incubator.
(§2) (2) Adding Compounds to Culture Medium
(§3) The original culture medium was discarded, and the mother liquor of each compound was diluted to final concentrations of 0, 5, 10, 20, 30, 60 and 80 μM, respectively. Each diluent was uniformized. To each head of a multichannel pipette, 100 μL of the diluent was introduced. Three heads were employed. The diluents were added to 3 marked wells (the cells were undamaged) of a tilted 96-well plate, respectively. Different concentrations of diluents were added to three different marked wells and evenly mixed by alternately sucking and blowing with the multichannel pipette 3 times. The 96-well plate was shaken slightly twice, and cultured in a CO2 incubator.
(§4) The cells were cultured in different compounds for 48 h and were then detected. Specifically, a clean bench was turned on for 15 min, and phosphate buffer saline (PBS) was pre-heated in a warm water bath for 15 min. MTT was taken out of a refrigerator at −20 degrees, protected from light and thawed (MTT stock solution was 5 mg/mL). MTT and a culture medium were mixed evenly in a V-shaped groove to yield a mixture comprising 500 μg/mL MTT and a culture medium (a volume ratio thereof being 1:10). 100 μL of the prepared MTT mixture was added to each well of the 96-well plate using the multichannel pipette, and then incubated at 37° C. for an appropriate time (1 h), thereby reducing the MTT to formazan (purple crystals formed in the cells under a microscope, which were different in medicated cells and unmedicated cells). The upper liquid was removed with a white pipette tip attached to a vacuum pump. For each concentration of the compounds, 3 pipette tips were employed. After the incubation, the MTT mixture was discarded, and then 100 μL of DMSO was added to each well using the multichannel pipette. The 96-well plate was shaken in a shaker for 10 min (until the purple crystals were dissolved in the cells under the microscope).
(§5) The absorbance value of the resulting solution was detected at a wavelength of 550 nm with a microplate reader. The survival rate of cells treated with different concentrations of drugs was calculated in accordance with the requirements to make a scatter plot. The IC50 results of each compound on the proliferation of human lung cancer cells A549 were shown in Table 3, where Gossypol I-A9 is a control sample.

[3] = test system: human ovarian cancer cells SKOV3; experiment: MTT assay, proliferation of human ovarian cancer cells SKOV3; details: for IC50: Homo sapiens, read-out: IC50 on the proliferation of human ovarian cancer cells SKOV3; for inhibitory effects on human ovarian cancer cells SKOV3 (in words): SKOV3, summary of Table 2; for effect compared with control gossypol I-A9, SKOV3: SKOV3, versus gossypol I-A9
Procedure: as §1, with “ovarian” for “lung”, “SKOV3” for “A549”
as §2
as §3, with “1, 2, 4, 8” for “5, 10, 20, 30, 60”, “16” for “80”
as §4
as §5, with “ovarian” for “lung”, “SKOV3” for “A549”, “2, wherein” for “3, where”

[4] = test system: human gastric cancer cells MKN45; experiment: MTT assay, proliferation of human gastric cancer cells MKN45; details: for IC50: Homo sapiens, read-out: IC50 on the proliferation of human gastric cancer cells MKN45; for inhibitory effects on human gastric cancer cells MKN45 (in words): MKN45, summary of Table 1
Procedure: as §1, with “gastric” for “lung”, “MKN45” for “A549”
as §2
as §3, with “15,” for “10, 20,”, “30, 45 and” for “30,”, “60” for “60 and 80”
as §4
The absorbance value of the cells was measured at a wavelength of 550 nm with a microplate reader. The survival rate of the cells treated with different concentrations of compounds was calculated to make a scatter plot. The IC50 results of each compound on the proliferation of human gastric cancer cells MKN45 were shown in Table 1, where Gossypol I-A9 is a control sample.

[5] = SK-OV-3, SKOV3, MTT, 48 h, 0-16 μM

For `COc1ccc(-c2c(C)c(O)c(O)c(C=O)c2COCc2ccccc2)cc1` [Compound I-29], the IC50 ([1]; PC3, MTT, 0-32 μM) was 4.26 µM, the “inhibitory effects on human prostate cancer cells PC3 (in words)” value [1] was “significant inhibitory effects” and the “effect compared with control gossypol I-A9, PC3” value [1] was “superior than the gossypol I-A9”. The “inhibitory effects on human lung cancer cells A549 (in words)” value [2] was “inhibitory effects”, the “effect compared with control gossypol I-A9, A549” value [2] was “slightly inferior to that of the Gossypol I-A9” and the IC50 ([2]; A549, MTT, 48 h, 0-80 μM) was 42.1 µM.
With `Cc1cc2c(C(C)C)c(O)c(O)c(C=O)c2c(O)c1-c1c(C)cc2c(C(C)C)c(O)c(O)c(C=O)c2c1O` [I-A9, gossypol, reference compound] the IC50 ([3]; SK-OV-3, 48 h) was 9.55 µM, the IC50 ([4]; MKN-45, 48 h) was 15.4 µM and the IC50 [1] was 10 µM. It also gave an IC50 ([2]; A549, 48 h) of 18.1 µM.
For `COC(=O)c1ccc(-c2c(C)c(O)c(O)c(C=O)c2Cc2c(OC)cc(OC)cc2OC)cc1` [Compound I-49], the IC50 [3, 5] was 5.92 µM, the “inhibitory effects on human ovarian cancer cells SKOV3 (in words)” value [3] was “significant inhibitory effects” and the “effect compared with control gossypol I-A9, SKOV3” value [3] was “superior to that of the gossypol I-A9”. For the same compound, the IC50 ([4]; MKN-45, MKN45, MTT, 48 h, 0-60 μM) was 3.12 µM, the “inhibitory effects on human gastric cancer cells MKN45 (in words)” value [4] was “significant inhibitory effects” and the “effect compared with control gossypol I-A9, MKN45” value ([4]; MKN45, versus gossypol I-A9) was “better than the control gossypol I-A9”. For the same compound, the IC50 ([1]; PC3, MTT, 0-32 μM) was 13.1 µM and the “inhibitory effects on human prostate cancer cells PC3 (in words)” value [1] was “significant inhibitory effects”.
For `COc1cc(OC)c(Cc2c(C#Cc3ccccc3)c(C)c(O)c(O)c2C=O)c(OC)c1` [I-A5], the IC50 [3, 5] was 9.79 µM, the “inhibitory effects on human ovarian cancer cells SKOV3 (in words)” value [3] was “significant inhibitory effects” and the IC50 ([1]; PC3, MTT, 0-32 μM) was 4.19 µM. The “inhibitory effects on human prostate cancer cells PC3 (in words)” value [1] was “significant inhibitory effects” and the “effect compared with control gossypol I-A9, PC3” value [1] was “superior than the gossypol I-A9”.
With `Cc1cc(C)cc(-c2c(C)c(O)c(O)c(C=O)c2COCc2ccccc2)c1` [Compound I-45] the IC50 ([1]; PC3, MTT, 0-32 μM) was 6.57 µM, the “inhibitory effects on human prostate cancer cells PC3 (in words)” value [1] was “significant inhibitory effects” and the “effect compared with control gossypol I-A9, PC3” value [1] was “superior than the gossypol I-A9”. For the same compound, the “inhibitory effects on human lung cancer cells A549 (in words)” value [2] was “inhibitory effects”, the “effect compared with control gossypol I-A9, A549” value [2] was “slightly inferior to that of the Gossypol I-A9” and the IC50 ([2]; A549, MTT, 48 h, 0-80 μM) was 26 µM.
With `COc1cc(OC)c(Cc2cc(C)c(O)c(O)c2CO)c(OC)c1` [Compound I-97] the IC50 [3, 5] was at least 35 µM and the “inhibitory effects on human gastric cancer cells MKN45 (in words)” value [4] was “significant inhibitory effects”.
In the case of `COc1cccc2c(OC)c(Cc3cc(C)c(O)c(O)c3C=O)ccc12` [I-A3], the IC50 [3, 5] is reported as 6.45 µM, the “inhibitory effects on human ovarian cancer cells SKOV3 (in words)” value [3] is reported as “significant inhibitory effects” and the “effect compared with control gossypol I-A9, SKOV3” value [3] is reported as “superior to that of the gossypol I-A9”. For the same compound, the IC50 ([1]; PC3, MTT, 0-32 μM) was 6.54 µM, the “inhibitory effects on human prostate cancer cells PC3 (in words)” value [1] was “significant inhibitory effects” and the “effect compared with control gossypol I-A9, PC3” value [1] was “superior than the gossypol I-A9”.
For `C#CCOCc1c(C=O)c(O)c(O)c(C)c1-c1ccccc1` [I-A2], the IC50 [3, 5] was 11.5 µM, the “inhibitory effects on human ovarian cancer cells SKOV3 (in words)” value [3] was “significant inhibitory effects” and the IC50 ([1]; PC3, MTT, 0-32 μM) was 5 µM. For the same compound, the “inhibitory effects on human prostate cancer cells PC3 (in words)” value [1] was “significant inhibitory effects” and the “effect compared with control gossypol I-A9, PC3” value [1] was “superior than the gossypol I-A9”.
